Results as given in patent US20110160055A1, “Imidazole and Triazole Compounds as Fungicides” (BASF SE, priority 2008, published 2011).

Legend:
Phakopsora pachyrhizi [1] = assay: Example G1: curative activity against soybean rust, greenhouse, sprayed two days after the 24 h incubation; assay type: in vivo; conditions: potted soybean seedlings, 150 ppm aqueous preparation sprayed two days after incubation, rated after a further 10 days; untreated plants 90% infected
Method: (§1) Subsequently, it was made up to 100 ml with water. This stock solution was diluted with the solvent/emulsifier/water mixture described to the active compound concentration indicated below. Alternatively to this, the active compounds were used as a commercially available ready-to-use solution and diluted with water to the active compound concentration indicated. Curative activity against soybean rust caused by Phakopsora pachyrhizi Leaves of potted soybean seedlings were inoculated with a spore suspension of soybean rust (Phakpsora pachyrhizi). […] During this time, the spores germinated and the germ tubes penetrated into the leaf tissue. Infected plants were then cultivated further in a greenhouse at temperatures between 23 and 27° C. and 60 to 80% relative atmospheric humidity. After two days, the plants were sprayed to run off point with the active compound solution described above at the active compound concentration stated below. After the spray coating had dried on, the test plants were cultivated in a greenhouse at temperatures between 23 and 27° C. and 60 to 80% relative atmospheric humidity for a further 10 days. The extent of the rust fungus development on the leaves was then determined visually in % infection.

Phakopsora pachyrhizi [2] = assay: Example G2: curative activity against soybean rust, greenhouse, sprayed directly after the 24 h incubation; assay type: in vivo; conditions: potted soybean seedlings, 150 ppm aqueous preparation sprayed after 24 h incubation, rated after a further 14 days; untreated plants 90% infected
Method: as §1, with “then” for “then cultivated further in a greenhouse at temperatures between 23 and 27° C. and 60 to 80% relative atmospheric humidity. After two days, the plants were”, “further 14” for “further 10”

CC(COc1ccccc1Cl)=C(C)CC(C(O)C(C)(C)C)n1cncn1 (centres unmarked) [I.A6b]
infection (extent of rust fungus development on the leaves, visual) (Phakopsora pachyrhizi [1]): 0%

CC(COc1cccc(Cl)c1Cl)=C(C)CC(C(O)C(C)(C)C)n1cncn1 (centres unmarked) [I.A14a]
infection (extent of rust fungus development on the leaves, visual) (Phakopsora pachyrhizi [2]): 0%
